# “Also recorded” adds a separate entry of the source. Like-named read-outs stand apart in the source and are kept apart here.
# Legend:
# [1] = system: glycerol kinase (GK) produced by Streptomyces canus A 2408; experiment: Km value of GK for its substrates; type: biochemical
# Method: The above mixture (1 ml) is preincubated at 37° C. for 5 minutes and GK solution (50 μl) [diluted with GL-buffer (10 mM phosphate buffer containing 10 mM glycerol, pH 7.5)] is added thereto and incubated at 37° C. for 10 minutes.
# One unit of GK is defined as liberating […] of glycero-3-phosphate per minute.
# Enzyme activity is calculated by the following equation: [formula]
# [2] = system: glycerol kinase (GK) produced by Streptomyces canus A 2408; experiment: Specific activity for nucleotide; type: biochemical; details: for Relative activity (%): 10 mM ATP replaced by the nucleotide, formed glycero-3-phosphate measured
# Method: (ii) specific activity for nucleotide:
# In assay method (i) hereinabove, 10 mM ATP is replaced by CTP, ITP, GTP and UTP and measures the formed glycero-3-phosphate.
# [3] = system: Escherichia coli GK (E.Co-GK); details: cited from earlier work
# [4] = system: glycerol kinase (GK) produced by Streptomyces canus A 2408; experiment: Effect of metal ions and p-chloromercuribenzoate (PCMB); type: biochemical
# From the text: Effect of metal ions and p-chloromercuribenzoate (PCMB)
# [5] = system: glycerol kinase (GK) produced by Streptomyces canus A 2408; experiment: Substrate specificity for glycerol, dihydroxyacetone phosphate and D-glyceraldehyde (ADP assay); type: biochemical; details: for Relative activity: substrate 0.1 M, 0.05 ml, 37° C. for 10 minutes, ADP assayed at 550 nm
# Method: (i) specificity for glycerol, dihydroxyacetone phosphate and D-glyceraldehyde: […]
# The reaction mixture (0.95 ml) is preincubated at 37° C. for 3 minutes, and the enzyme solution (dissolved in 10 mM phosphate buffer, pH 7.5, 0.05 ml) is added thereto. Then the mixture is incubated at 37° C. for 10 minutes. The reaction is stopped by boiling for 3 minutes. After cooling to 37° C., the amount of ADP is assayed. ADP is assayed by adding an ADP-assay solution (2.0 ml) comprising the following mixture: […]
# The reaction mixture is incubated at 37° C. for 15 minutes. Color formation is measured at 550 nm to calculate the substrate specificity.
# [6] = system: pigeon heart GK (Pig.-GK); details: cited from earlier work
compound,measurement,setting,value
Nc1ncnc2c1ncn2[C@@H]1O[C@H](COP(=O)(O)OP(=O)(O)OP(=O)(O)O)[C@@H](O)[C@H]1O [ATP],Km,[1],200 µM
same,nucleotide specificity (in words),[2],especially high specificity
same,Relative activity (%),[2],100%
same,nucleotide specificity (in words),[3],acts only for ATP
Nc1ccn([C@@H]2O[C@H](COP(=O)(O)OP(=O)(O)OP(=O)(O)O)[C@@H](O)[C@H]2O)c(=O)n1 [CTP],nucleotide specificity (in words),[2],especially high specificity
same,Relative activity (%),[2],92%
[Ca+2].[Cl-].[Cl-] [CaCl2],Effect of metal ion on GK activity (in words),[4],inhibited
same,Relative Activity (%) with 1 mM Mg++,[4]; reagent 1.0 mM,54%
same,Relative Activity (%) without Mg++,[4]; reagent 1.0 mM,0%
O=C[C@H](O)CO [D-glyceraldehyde],Km,[1],350 µM
same,Relative activity,[5],20%
Nc1nc2c(ncn2[C@@H]2O[C@H](COP(=O)(O)OP(=O)(O)OP(=O)(O)O)[C@@H](O)[C@H]2O)c(=O)[nH]1 [GTP],Relative activity (%),[2],19%
O=c1[nH]cnc2c1ncn2[C@@H]1O[C@H](COP(=O)(O)OP(=O)(O)OP(=O)(O)O)[C@@H](O)[C@H]1O [ITP],Relative activity (%),[2],47%
[Cl-].[Cl-].[Mg+2] [MgCl2],Effect of metal ion on GK activity (in words),[4],activated
same,Relative Activity (%) with 1 mM Mg++,[4]; reagent 1.0 mM,100%
same,Relative Activity (%) without Mg++,[4]; reagent 1.0 mM,100%
[Cl][Mn][Cl] [MnCl2],Effect of metal ion on GK activity (in words),[4]; listed as Mn++,inhibited; also recorded: strongly inhibits
same,Relative Activity (%) with 1 mM Mg++,[4]; reagent 1.0 mM,14%
same,Relative Activity (%) without Mg++,[4]; reagent 1.0 mM,6%
same,use as divalent metal ion (in words),[3],can be used
same,use as divalent metal ion (in words),[6],can be used
"O=C(O)c1cc[c]([Hg][Cl])cc1 [PCMB, p-chloromercuribenzoate]",Inhibition of GK activity by PCMB (in words),[4]; 7.5×10^-6 M of PCMB,completely inhibits
same,Relative Activity (%) with 1 mM Mg++,[4]; PCMB 5.0 × 10^-6 M,13%
same,Relative Activity (%) with 1 mM Mg++,[4]; PCMB 7.5 × 10^-6 M,0%
O=c1ccn([C@@H]2O[C@H](COP(=O)(O)OP(=O)(O)OP(=O)(O)O)[C@@H](O)[C@H]2O)c(=O)[nH]1 [UTP],Relative activity (%),[2],18%
O=C(CO)CO [dihydroxyacetone],Km,[1],660 µM
same,Relative activity,[5],74%
OCC(O)CO [glycerol],Km,[1],48 µM
same,substrate specificity (in words),[5]; glycerol versus dihydroxyacetone phosphate,higher specificity
same,Relative activity,[5],100%
dihydroxyacetone phosphate,activity for dihydroxyacetone phosphate as compared with glycerol,[3],nearly twice

# Reference: US4347323A, “Glycerol kinase from Streptomyces canus” (Toyo Jozo Kabushiki Kaisha, priority 1979, dated 1982)
